“Also recorded” adds a separate entry of the source.
Columns and labels:
[1] = tested on: 41 other targets, including many CNS receptors and transporters; test: NIMH PDSP binding assays for targets other than nAChRs
Procedure: (§1) All binding assays for targets other than nAChRs were performed by the National Institute of Mental Health's Psychoactive Drug Screening Program (PDSP) supported by NIMH grant HHSN-271-2008-00025-C(PI: Bryan Roth). For experimental details (Ki determinations, receptor binding profiles, functional data, MDR1 data, etc. as appropriate) refer to the PDSP web site http://pdsp.med.unc.edu/.
To determine affinities of the lead compound, VMY-2-95, for targets other than neuronal nAChRs, we tested VMY-2-95 in binding assays using 41 other targets, including many CNS receptors and transporters. […] The Ki values of VMY-2-95 at these 9 targets were determined by performing secondary binding assays using a series of concentrations of VMY-2-95. […] Furthermore, the binding affinity of VMY-2-95 for α4β2 nAChRs is at least 3,000 times higher than that for any of those 9 targets.

[2] = tested on: nicotine self-administration; test: Nicotine self-administration in rats; format: in vivo, rat
Procedure: The studies were conducted in accordance with the regulations outlined by the Duke University Animal Care and Use Committee. The rats housed in approved standard laboratory conditions in a Duke University vivarium facility near the testing room to minimize stress induced by transporting the rats. The rats were kept on a 12:12 reverse day/night cycle, so that they were in their active phase during behavioral testing. The rats in the drug iv self-administration studies were singly housed to prevent them from damaging each other's catheters. The rats in the locomotor activity studies were housed in groups of 2-3. All rats were allowed access to water at all times; the rats in the nicotine-self-administration study were fed daily approximately 30 minutes after completing the sessions while those in the locomotor activity study had continuous access to food.
VMY-2-95 was injected s.c. 10 minutes before testing in a volume of 1 mL/kg of saline. The doses (0, 0.3, 1 and 3 mg/kg) were given in a counterbalanced order with at least two days between successive injections.
Each infusion was immediately followed by a one-minute period in which the cue lights went out, the house light came on and responses were recorded but not reinforced.
After food training, the animals were surgically implanted with jugular catheters. […] Alpha of p<0.05 (two-tailed) was used as the threshold for significance.

[3] = biological target: T1, 5-HT3 receptors (Homo sapiens, UniProt P46098); test: NIMH PDSP primary binding assay; details: 10 μM
T1 sequence (P46098 24-478): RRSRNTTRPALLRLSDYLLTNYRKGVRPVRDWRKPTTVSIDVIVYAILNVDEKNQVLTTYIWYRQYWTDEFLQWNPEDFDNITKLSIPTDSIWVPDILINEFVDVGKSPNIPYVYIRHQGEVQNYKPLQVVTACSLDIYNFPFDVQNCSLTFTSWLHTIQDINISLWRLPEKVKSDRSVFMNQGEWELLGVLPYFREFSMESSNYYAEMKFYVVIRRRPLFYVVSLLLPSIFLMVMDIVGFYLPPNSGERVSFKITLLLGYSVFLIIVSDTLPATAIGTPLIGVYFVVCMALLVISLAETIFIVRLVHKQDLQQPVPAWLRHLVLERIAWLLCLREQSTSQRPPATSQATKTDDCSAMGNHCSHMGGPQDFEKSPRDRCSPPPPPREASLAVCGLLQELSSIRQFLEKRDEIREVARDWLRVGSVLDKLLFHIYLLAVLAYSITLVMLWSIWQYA
Procedure: as §1
The compound either is not a “hit” in primary binding assays, or showing at least 3,000-fold lower binding affinities than that for α4β2 nAChRs in secondary binding assays (FIG. 19,).

[4] = biological target: T2, human α4β2 nAChRs (Homo sapiens, UniProt P17787+P43681); test: 86Rb+ efflux assay in stably transfected cells; format: cell-based
T2 construct: expressed in transfected cells
T2 sequence (P43681 29-627 limits assumed): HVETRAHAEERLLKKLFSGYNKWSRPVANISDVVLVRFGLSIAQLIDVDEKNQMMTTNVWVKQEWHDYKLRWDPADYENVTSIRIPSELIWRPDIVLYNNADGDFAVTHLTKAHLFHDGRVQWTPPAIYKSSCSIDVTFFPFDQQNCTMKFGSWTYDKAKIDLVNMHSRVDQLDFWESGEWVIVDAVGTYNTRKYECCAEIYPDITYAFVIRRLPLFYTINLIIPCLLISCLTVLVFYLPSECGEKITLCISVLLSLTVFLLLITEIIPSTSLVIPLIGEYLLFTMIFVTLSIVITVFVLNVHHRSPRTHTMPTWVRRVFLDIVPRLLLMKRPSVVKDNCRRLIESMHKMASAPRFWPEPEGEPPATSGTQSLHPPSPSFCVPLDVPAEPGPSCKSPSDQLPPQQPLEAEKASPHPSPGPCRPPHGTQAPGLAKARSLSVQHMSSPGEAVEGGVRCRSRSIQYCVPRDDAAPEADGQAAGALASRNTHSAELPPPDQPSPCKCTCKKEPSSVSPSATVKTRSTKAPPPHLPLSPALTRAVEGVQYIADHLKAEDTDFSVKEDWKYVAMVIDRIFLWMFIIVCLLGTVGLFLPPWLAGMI
T2 sequence (P17787 26-502): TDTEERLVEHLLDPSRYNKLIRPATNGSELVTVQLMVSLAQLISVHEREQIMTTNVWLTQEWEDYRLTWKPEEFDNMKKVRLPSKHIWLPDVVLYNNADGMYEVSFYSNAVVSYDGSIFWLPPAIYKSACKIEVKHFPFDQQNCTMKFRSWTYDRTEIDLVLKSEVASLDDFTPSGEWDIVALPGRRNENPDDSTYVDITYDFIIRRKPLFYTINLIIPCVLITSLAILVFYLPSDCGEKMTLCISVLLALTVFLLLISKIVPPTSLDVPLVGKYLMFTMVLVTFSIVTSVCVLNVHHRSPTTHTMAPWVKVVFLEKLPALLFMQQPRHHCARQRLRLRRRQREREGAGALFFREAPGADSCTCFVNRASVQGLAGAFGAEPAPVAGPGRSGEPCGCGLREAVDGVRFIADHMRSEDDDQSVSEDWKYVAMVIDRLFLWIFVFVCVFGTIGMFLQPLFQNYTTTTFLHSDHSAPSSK
Procedure: (§2) The cell line expressing rat α3β4 nAChRs, KXα3β4R2, was established previously by stably transfecting HEK 293 cells with combinations of rat nAChR α3 and β4 subunit genes. The cell line expressing human α4β2 nAChRs, YXα4β2H1, were established recently (Tuan et al., 2012, manuscript in preparation). These cell lines were maintained in minimum essential medium (MEM) supplemented with 10% fetal bovine serum, 100 units/mL penicillin G, […] streptomycin and selective antibiotics at 37° C. with 5% CO2 in a humidified incubator. Tissue culture medium and antibiotics were obtained from Invitrogen Corporation (Carlsbad, Calif.), unless otherwise stated. Fetal bovine serum and horse serum were provided by Gemini Bio-Products (Woodland, Calif.).
(§3) Functional properties of compounds at nAChRs expressed in the transfected cells were measured using ^86Rb^+ efflux assays as described previously. In brief, cells were plated into 24-well plates coated with poly-D-lysine. The plated cells were grown at 37° C. for 18 to 24 hour to reach 85-95% confluence. The cells were then incubated in growth medium (0.5 mL/well) containing ^86Rb^+ (2 μCi/mL) for 4 hour at 37° C. The loading mixture was then aspirated, and the cells were washed four times with 1 mL buffer (15 mM HEPES, 140 mM NaCl, 2 mM KCl, 1 mM MgSO4, 1.8 mM CaCl2, 11 mM Glucose, pH 7.4). One mL of buffer with or without compounds to be tested was then added to each well. After incubation for 2 min, the assay buffer was collected for measurements of ^86Rb^+ released from the cells. Cells were then lysed by adding 1 mL of 100 mM NaOH to each well, and the lysate was collected for determination of the amount of ^86Rb^+ that was in the cells at the end of the efflux assay. Radioactivity of assay samples and lysates was measured by liquid scintillation counting. Total loading (cpm) was calculated as the sum of the assay sample and the lysate of each well. The amount of ^86Rb^+ efflux was expressed as a percentage of ^86Rb^+ loaded. […] For obtaining EC50 and Emax values, stimulation curves were constructed in which 8 different concentrations of a ligand were included in the assay. […] EC50, Emax and IC50(10′) values were determined by nonlinear least-squares regression analyses (GraphPad, San Diego, Calif.).
(§4) Functional properties of the new ligands were determined by ^86Rb^1 efflux assays in cells expressing α3β4 and α4β2 nAChR subtypes. Functional activity of each new ligand was measured in terms of its agonism, antagonism and desensitization ability.
(§5) Agonist activity of each of the ligands was tested at eight concentrations. […] The full concentration-effect curves generated potency (EC50) and efficacy (Emax) of each ligand.
(§6) Though the ^86Rb^+ efflux assays were the main methodology used to determine functional properties, whole-cell current measurements were also used to verify the key experiments.

[5] = biological target: T3, rat α3β4 nAChRs (Rattus norvegicus, UniProt P04757+P12392); test: 86Rb+ efflux assay in stably transfected cells; format: cell-based; details: 86Rb+ efflux, rat α3β4
T3 construct: expressed in transfected cells; host or cells: HEK 293 (KXα3β4R2)
T3 sequence (P04757 26-499): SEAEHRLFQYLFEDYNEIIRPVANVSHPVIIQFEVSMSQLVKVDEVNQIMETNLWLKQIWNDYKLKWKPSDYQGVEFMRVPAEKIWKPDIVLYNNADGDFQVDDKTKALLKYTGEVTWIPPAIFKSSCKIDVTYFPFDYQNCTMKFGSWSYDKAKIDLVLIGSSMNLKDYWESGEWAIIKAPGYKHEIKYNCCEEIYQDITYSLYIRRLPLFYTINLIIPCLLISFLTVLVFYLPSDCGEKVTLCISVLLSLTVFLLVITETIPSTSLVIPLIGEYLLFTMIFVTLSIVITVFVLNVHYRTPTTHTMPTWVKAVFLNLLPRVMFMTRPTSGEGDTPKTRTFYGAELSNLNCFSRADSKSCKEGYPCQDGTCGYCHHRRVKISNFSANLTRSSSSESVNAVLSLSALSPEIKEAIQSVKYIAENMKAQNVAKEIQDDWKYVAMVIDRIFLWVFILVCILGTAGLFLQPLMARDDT
T3 sequence (P12392 21-495): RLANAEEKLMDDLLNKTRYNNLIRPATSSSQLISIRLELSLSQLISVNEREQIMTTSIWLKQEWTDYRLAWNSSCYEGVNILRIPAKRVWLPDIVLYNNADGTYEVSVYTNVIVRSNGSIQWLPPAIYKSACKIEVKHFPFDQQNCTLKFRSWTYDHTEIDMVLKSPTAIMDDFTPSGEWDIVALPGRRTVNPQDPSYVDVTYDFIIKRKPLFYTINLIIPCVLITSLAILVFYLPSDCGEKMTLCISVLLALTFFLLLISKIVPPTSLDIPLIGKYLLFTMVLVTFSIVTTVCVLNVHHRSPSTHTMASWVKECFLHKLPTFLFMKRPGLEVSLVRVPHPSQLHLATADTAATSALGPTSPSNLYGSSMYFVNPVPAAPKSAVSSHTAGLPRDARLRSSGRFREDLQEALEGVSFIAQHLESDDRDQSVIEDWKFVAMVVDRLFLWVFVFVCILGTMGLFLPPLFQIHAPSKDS
Procedure: as §2, §3, §4, §5, §6

[6] = 10 μM, 41 targets, primary binding assays

## C(#Cc1cncc(OC[C@@H]2CCN2)c1)c1ccccc1 [VMY-2-95, (S)-3-(azetidin-2-ylmethoxy)-5-(phenylethynyl)pyridine]
[1]; [6]
  number of targets "hit" (more than 50% inhibition of binding): 9
  number of targets "miss" (less than 50% inhibition of binding): 32
[1]; Ki from secondary binding assays
  binding affinity for α4β2 nAChRs relative to the 9 hit targets: at least 3,000 times
[2]; 3 mg/kg s.c., 10 min before session, p<0.025
  nicotine self-administration (number of nicotine infusions) vs saline vehicle: significantly reduces; also recorded: significant (p<0.025) decrease
[2]; 0.3, 1, 3 mg/kg s.c., F(3,42)=3.36, p<0.05
  intravenous nicotine self-administration, overall dose effect: decreased intravenous nicotine self-administration in a dose-dependent manner
[2]; lower doses 0.3 and 1 mg/kg s.c.
  nicotine self-administration vs saline vehicle: did not produce significant decreases; also recorded: did not produce significant effects
[3]
  primary binding result at 5-HT3 receptors: not a “hit”
[4]
  EC50: 8.6 nM
[4]; 86Rb+ efflux, human α4β2
  agonist activity at α4β2 receptors: clear agonist activity
[4]; 10 min pre-treatment before 100 μM (−)-nicotine, read-out: IC50(10′) α4β2 (desensitization potency)
  IC50: 16 nM
[4]; preincubated with the cells for 10 min
  inhibition of nicotine activation of α4β2 receptors: inhibited
[5]
  agonist activity at α3β4 nAChRs: did not show any detectable agonist activity; also recorded: does not show agonist activity
